Test results taken from patent US20210060484A1, “PROTON COUPLED ELECTROCHEMICAL CO2 CAPTURE SYSTEM” (President and Fellows of Harvard College, priority 2018, published 2021).

Columns and labels:
[1] = cited from earlier work
[2] = solution of zero salinity; cited from earlier work
[3] = solution of zero salinity
[4] = cited from earlier work; remark: listed apart in the source

Structure (SMILES): c1ccc2nccnc2c1 [quinoxaline]
- solubility ([1]; in water and in weakly alkaline aqueous solution): above 4.0 M

Structure (SMILES): O=C(O)O [carbonic acid]
- K1, first dissociation constant [2]: 1.1 µM
- K2, second dissociation constant [2]: 410 pM
- first pKa [3]: 6.0
- second pKa [3]: 9.4

Structure (SMILES): O=C1C=C(S(=O)(=O)O)C=C(S(=O)(=O)O)C1=O [1,2-benzoquinone-3,5-disulfonic acid]
- reported solubility ([1]; organic PCET molecules from the redox-flow battery literature): 3000 mM
- chemical stability in water [4]: chemical instability in water
